Test system: Ba/F3 cells transfected with T315I BCR-ABL
Assay: BCR-ABL phospho-ELISA in T315I cells or Ba/F3 T315I proliferation (XTT)
Assay type: cell-based
Conditions: Mus musculus, BaF3, phospho-ELISA or 72 h XTT proliferation, read-out: P_ELISA_[T3151l_Cells] or Ba/F3 T315l proliferation (XTT)
Method: MV4-11 and THP cells were maintained in Iscove's Modified Dulbecco's Medium supplemented with 10% fetal bovine serum (FBS) and penicillin/streptomycin, Ba/F3 cells were maintained in RPMI 1640 supplemented with 10% FBS, penicillin/streptomycin and 5 ng/ml recombinant mouse IL-3.
Compounds were tested in the following assays in duplicate.
96-well XTT assay: Cells were grown in growth media containing various concentrations of compounds (duplicates) on a 96-well plate for 72 hours at 37° C. The starting cell number was 5000-8000 cells per well and volume was 120 μl. At the end of the 72-hour incubation, 40 μl of XTT labeling mixture (50:1 solution of sodium 3′-[1-(phenylamino-carbonyl)-3,4-tetrazolium]-bis(4-methoxy-6-nitro) benzene sulfonic acid hydrate and Electron-coupling reagent: PMS (N-methyl dibenzopyrazine methyl sulfate) were added to each well of the plate. After an additional 2-6 hours of incubation at 37° C., the absorbance reading at 405 nm with background correction at 650 nm was measured with a spectrophotometer.
BCR-ABL Phospho-ELISA Assay
Cells (Ba/F3 cells transfected with WT BCR-ABL, other kinases, or T315I, Y253F, or other mutant forms of BCR-ABL) were grown in the absence of IL-3 at least ½ week before the assay. The day before assay, the cells were fed with fresh media so that at the time of assay the cells were in log phase. Ba/F3 cells that had been grown in the absence of IL-3 for at least ½ week were resuspended in RPMI 1640 so that each well of a 96-well plate would contain approximately 200,000 cells. Cells were distributed in a 96-well plate containing serially diluted concentrations of test compounds. Cells were typically incubated with or without test compounds for 60-120 minutes at 5% CO2, 37° C. The incubation was performed with or without other additives such as 10% FCS or 50% human plasma. After incubation of compounds, lysis buffer was added and incubated for 10-15 minutes; the lysate was cleared by centrifugation.
To make the ELISA plate, commercially available Anti-ABL antibodies (e.g. (Ab-3, Calbiochem OP20) were prepared at a concentration of 0.125 μg/ml in coating buffer (0.1M Na-carbonate, pH 9.5), and plated at 10 ml per plate ([…] 100 μg/ml Ab/10 ml). In a high binding multi-well plate, 100 μl Ab in coating buffer were added to each well, and each plate was covered with a plate seal and incubated overnight at 4° C.
Excess antibody was removed and the ELISA plate was washed 3-4 times with 200 μl of wash buffer (0.05% Tween in PBS, pH 7.4). 150 μl of lysate (see above) were transferred to the ELISA plate. Plates were sealed and incubated 2 hours at room temperature. The detection antibody (e.g. HRP conjugated anti-pTyr or unconjugated α-p-Y 4G10, Upstate) was prepared in assay diluent. The antibody was diluted 1:1000 (stock=2 μg/μl, 200 μg in 100 μl; f.c.=2 μg/ml) in assay diluent and 10 ml of diluted antibody per plate were added. The lysate was removed from the ELISA plates, and wells were washed four times with 200 μl of wash buffer per well. 100 μl of detection antibody was added to each well; the plate was covered, and incubated 1 hr at room temperature (21° C.). Excess detection antibody was removed from the ELISA plates, and the wells were washed four times with 200 μl of wash buffer per well.
If necessary, (i.e. for unconjugated anti-pTyr antibody) secondary antibody (goat anti-rabbit HRP) was diluted 1:3000 in assay diluent (3.33 μl per 10 ml diluent) and added at 10 ml of diluted antibody per plate. Excess secondary antibody was removed from the ELISA plate, and the plate was washed four times with 200 μl per well of wash buffer.
Substrate Reagent A and Substrate Reagent B (Pierce Cat#37070 SuperSignal ELISA Pico Chemiluminescent Substrate) were added immediately before use (10 ml resultant solution per plate). 100 μl substrate were added per well, mixed for 1 minute, and chemiluminescent signal was measured with a luminometer.

Compound | IC50 [nM]
COc1ccccc1-c1n[nH]c2ncc(-c3ccc(C(=O)N4CCOCC4)cc3)cc12 | 1000 to 10000
c1ccc(-c2n[nH]c3ncc(-c4ccc5[nH]ccc5c4)cc23)cc1 | 1000 to 10000
CCN1CCN(C(=O)c2cccc(-c3cnc4[nH]nc(-c5cc(F)ccc5OC)c4c3)c2)CC1 | < 1000
CCc1ccccc1-c1n[nH]c2ncc(-c3cccc(C(=O)N4CCOCC4)c3)cc12 | < 1000
COc1cc(-c2cnc3[nH]nc(-c4ccccc4)c3c2)ccc1O | 1000 to 10000
COc1ccccc1-c1n[nH]c2ncc(Br)cc12 | 1000 to 10000
O=C(c1cccc(-c2cnc3[nH]nc(-c4cccc5cccnc45)c3c2)c1)N1CCOCC1 | < 1000
COc1ccccc1-c1n[nH]c2ncc(-c3cccc(C(=O)N4CCN(C)CC4)c3)cc12 | < 1000
COc1ccccc1-c1cnc2[nH]nc(-c3ccccc3OC)c2c1 | 1000 to 10000
COc1ccccc1-c1n[nH]c2ncc(-c3cccc(C(=O)NC(C)C)c3)cc12 | 1000 to 10000
Oc1cccc(-c2cnc3[nH]nc(-c4ccccc4)c3c2)c1 | < 1000
Cc1ccsc1-c1n[nH]c2ncc(-c3cccc(C(=O)N4CCOCC4)c3)cc12 | < 1000
COc1ccccc1-c1n[nH]c2ncc(-c3cccc(C(=O)N4CCCC4)c3)cc12 | < 1000
COc1ccccc1-c1n[nH]c2ncc(-c3cccc(C(=O)N4CCC(CO)CC4)c3)cc12 | < 1000
c1ccc(-c2n[nH]c3ncc(-c4cccnc4)cc23)cc1 | > 10000
COc1ccccc1-c1c[nH]c2ncc(-c3cccc(C(=O)N(C)C)c3)nc12 | > 10000
CCOc1ccccc1-c1n[nH]c2ncc(-c3cccc(C(=O)N4CCOCC4)c3)cc12 | 1000 to 10000

Compound | IC50 [nM]
Cc1cc(F)ccc1-c1n[nH]c2ncc(-c3cccc(C(=O)N4CCOCC4)c3)cc12 | 1000 to 10000
COc1ccccc1-c1n[nH]c2ncc(-c3cccc(C(=O)N(C)C)c3)cc12 | < 1000
COc1cc(-c2cnc3[nH]cc(-c4ccc(C)cc4)c3n2)ccc1O | < 1000
COc1ccccc1-c1n[nH]c2ncc(-c3cccc(S(=O)(=O)NC4CC4)c3)cc12 | < 1000
COc1ccccc1-c1n[nH]c2ncc(-c3ccc(O)c(C(=O)N4CCOCC4)c3)cc12 | < 1000
COc1ccccc1-c1n[nH]c2ncc(-c3ccc(C(=O)N4CCN(C)CC4)cc3)cc12 | < 1000
Cn1ccc2cc(-c3n[nH]c4ncc(-c5cccc(C(=O)N6CCOCC6)c5)cc34)ccc21 | 1000 to 10000
COc1ccccc1-c1n[nH]c2ncc(-c3cnc4[nH]n(C)c(=O)c4c3)cc12 | 1000 to 10000
O=C(c1cccc(-c2cnc3[nH]nc(-c4ccc5cc[nH]c5c4)c3c2)c1)N1CCOCC1 | 1000 to 10000
COc1ncc(-c2n[nH]c3ncc(-c4cccc(C(=O)N5CCOCC5)c4)cc23)c(OC)n1 | 1000 to 10000
COc1ccccc1-c1n[nH]c2ncc(-c3ccc(C(=O)N4CCCC4)cc3)cc12 | 1000 to 10000
COc1c(F)cccc1-c1n[nH]c2ncc(-c3cccc(C(=O)N4CCOCC4)c3)cc12 | < 1000
O=C(c1cccc(-c2cnc3[nH]nc(-c4ccncc4Cl)c3c2)c1)N1CCOCC1 | 1000 to 10000
COc1ccccc1-c1n[nH]c2ncc(-c3cccc(C(=O)N4CCN(CCN(C)C)CC4)c3)cc12 | < 1000
COc1ccccc1-c1n[nH]c2ncc(-c3ccc(C(=O)NC4CC4)cc3)cc12 | < 1000
COc1ccccc1-c1n[nH]c2ncc(-c3cccnc3)cc12 | 1000 to 10000
